System: 935938-334-R-J1-PDC complex spheroid viability
Assay: Anticancer human tumor 935938-334-R-J1-PDC patient-derived small intestine adenocarcinoma cell line growth inhibition [POLQ]
Settings: for IC50: curve of first compound; for viability, T/C: stronger effect = lower value
In short: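 Three-cell-type spheroids modelling solid tumor plus stroma served as the readout system; POL inhibitors were tested individually and in combination, concentration ranges set by clinical Cmax where known.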

[1] = second compound 0.0316 µM, first compound 0.0316 µM
[2] = second compound 0.0316 µM, first compound 0.1 µM
[3] = second compound 0.0316 µM, first compound 0.316 µM
[4] = second compound 0.0316 µM, first compound 1 µM
[5] = second compound 0.0316 µM, first compound 3.16 µM
[6] = second compound 0.0316 µM, first compound 10 µM
[7] = second compound 0.1 µM, first compound 0.0316 µM
[8] = second compound 0.1 µM, first compound 0.1 µM
[9] = second compound 0.1 µM, first compound 0.316 µM
[10] = second compound 0.1 µM, first compound 1 µM
[11] = second compound 0.1 µM, first compound 3.16 µM
[12] = second compound 0.1 µM, first compound 10 µM
[13] = second compound 0.316 µM, first compound 0.0316 µM
[14] = second compound 0.316 µM, first compound 0.1 µM
[15] = second compound 0.316 µM, first compound 0.316 µM
[16] = second compound 0.316 µM, first compound 1 µM
[17] = second compound 0.316 µM, first compound 3.16 µM
[18] = second compound 0.316 µM, first compound 10 µM
[19] = second compound 1 µM, first compound 0.0316 µM
[20] = second compound 1 µM, first compound 0.1 µM
[21] = second compound 1 µM, first compound 0.316 µM
[22] = second compound 1 µM, first compound 1 µM
[23] = second compound 1 µM, first compound 3.16 µM
[24] = second compound 1 µM, first compound 10 µM
[25] = second compound 3.16 µM, first compound 0.0316 µM
[26] = second compound 3.16 µM, first compound 0.1 µM
[27] = second compound 3.16 µM, first compound 0.316 µM
[28] = second compound 3.16 µM, first compound 1 µM
[29] = second compound 3.16 µM, first compound 3.16 µM
[30] = second compound 3.16 µM, first compound 10 µM
[31] = second compound 10 µM, first compound 0.0316 µM
[32] = second compound 10 µM, first compound 0.1 µM
[33] = second compound 10 µM, first compound 0.316 µM
[34] = second compound 10 µM, first compound 1 µM
[35] = second compound 10 µM, first compound 3.16 µM
[36] = second compound 10 µM, first compound 10 µM
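Also: spheroids exposed to drugs for seven days before viability read.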
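For viability, T/C in this document: 100% = DMSO vehicle control wells.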

CC(C)n1c(=O)n(C)c2cnc3cc(F)c(-c4ccc(OCCCN5CCCCC5)nc4)cc3c21 + COC1C(OC(N)=O)C(O)C(Oc2ccc3c(O)c(NC(=O)c4ccc(O)c(CC=C(C)C)c4)c(=O)oc3c2C)OC1(C)C
IC50 (second compound 0.0316 µM): > 10000 nM | IC50 (second compound 0.1 µM): > 10000 nM | IC50 (second compound 0.316 µM): > 10000 nM | IC50 (second compound 1 µM): > 10000 nM | IC50 (second compound 3.16 µM): > 10000 nM | IC50 (second compound 10 µM): > 10000 nM | viability, T/C [1]: 124% | viability, T/C [2]: 124% | viability, T/C [3]: 108% | viability, T/C [4]: 95.4% | viability, T/C [5]: 138% | viability, T/C [6]: 133% | viability, T/C [7]: 123% | viability, T/C [8]: 109% | viability, T/C [9]: 79% | viability, T/C [10]: 135% | viability, T/C [11]: 139% | viability, T/C [12]: 92.8% | viability, T/C [13]: 98% | viability, T/C [14]: 105% | viability, T/C [15]: 118% | viability, T/C [16]: 119% | viability, T/C [17]: 108% | viability, T/C [18]: 85.2% | viability, T/C [19]: 81.3% | viability, T/C [20]: 117% | viability, T/C [21]: 99.3% | viability, T/C [22]: 113% | viability, T/C [23]: 104% | viability, T/C [24]: 120% | viability, T/C [25]: 95% | viability, T/C [26]: 115% | viability, T/C [27]: 89.6% | viability, T/C [28]: 117% | viability, T/C [29]: 106% | viability, T/C [30]: 90.3% | viability, T/C [31]: 94.4% | viability, T/C [32]: 135% | viability, T/C [33]: 122% | viability, T/C [34]: 160% | viability, T/C [35]: 133% | viability, T/C [36]: 101%

COc1cccc(OCCCN)c1-c1cc(Nc2cnc(C#N)cn2)n[nH]1 + Nc1ccc(C#CCN(C(=O)Cc2ncc(C(F)(F)F)cc2C(F)(F)F)c2ccc(F)cc2)nn1
IC50 (second compound 0.0316 µM): 36.6 nM | IC50 (second compound 0.1 µM): 61.6 nM | IC50 (second compound 0.316 µM): 31.7 nM | IC50 (second compound 1 µM): 38.8 nM | IC50 (second compound 3.16 µM): 54.9 nM | IC50 (second compound 10 µM): 45.5 nM | viability, T/C (second compound 0.0316 µM, first compound 0.00316 µM): 95.1% | viability, T/C (second compound 0.0316 µM, first compound 0.01 µM): 122% | viability, T/C [1]: 54.7% | viability, T/C [2]: 34.4% | viability, T/C [3]: 10.4% | viability, T/C [4]: 7.92% | viability, T/C (second compound 0.1 µM, first compound 0.00316 µM): 111% | viability, T/C (second compound 0.1 µM, first compound 0.01 µM): 99.2% | viability, T/C [7]: 72.4% | viability, T/C [8]: 35.2% | viability, T/C [9]: 9.41% | viability, T/C [10]: 8.83% | viability, T/C (second compound 0.316 µM, first compound 0.00316 µM): 102% | viability, T/C (second compound 0.316 µM, first compound 0.01 µM): 92.4% | viability, T/C [13]: 44.1% | viability, T/C [14]: 28.3% | viability, T/C [15]: 8.42% | viability, T/C [16]: 8.2% | viability, T/C (second compound 1 µM, first compound 0.00316 µM): 117% | viability, T/C (second compound 1 µM, first compound 0.01 µM): 83.2% | viability, T/C [19]: 62.1% | viability, T/C [20]: 23.2% | viability, T/C [21]: 10.4% | viability, T/C [22]: 7.61% | viability, T/C (second compound 3.16 µM, first compound 0.00316 µM): 93.1% | viability, T/C (second compound 3.16 µM, first compound 0.01 µM): 71% | viability, T/C [25]: 76.5% | viability, T/C [26]: 21.5% | viability, T/C [27]: 10.1% | viability, T/C [28]: 8.73% | viability, T/C (second compound 10 µM, first compound 0.00316 µM): 80.4% | viability, T/C (second compound 10 µM, first compound 0.01 µM): 88.1% | viability, T/C [31]: 66.1% | viability, T/C [32]: 15.1% | viability, T/C [33]: 11.3% | viability, T/C [34]: 12.5%

CC1COCCN1c1cc(C2(S(C)(=N)=O)CC2)nc(-c2ccnc3[nH]ccc23)n1 (stereo not drawn) + Nc1ccc(C#CCN(C(=O)Cc2ncc(C(F)(F)F)cc2C(F)(F)F)c2ccc(F)cc2)nn1
IC50 (second compound 0.0316 µM): 3830 nM | IC50 (second compound 0.1 µM): 2330 nM | IC50 (second compound 0.316 µM): 3220 nM | IC50 (second compound 1 µM): 2480 nM | IC50 (second compound 3.16 µM): 1900 nM | IC50 (second compound 10 µM): 1810 nM | viability, T/C [1]: 105% | viability, T/C [2]: 83.7% | viability, T/C [3]: 97.7% | viability, T/C [4]: 76.1% | viability, T/C [5]: 58.7% | viability, T/C [6]: 15.2% | viability, T/C [7]: 104% | viability, T/C [8]: 117% | viability, T/C [9]: 91.8% | viability, T/C [10]: 91% | viability, T/C [11]: 35% | viability, T/C [12]: 16% | viability, T/C [13]: 83.9% | viability, T/C [14]: 96.8% | viability, T/C [15]: 96.7% | viability, T/C [16]: 82.8% | viability, T/C [17]: 50.9% | viability, T/C [18]: 14.2% | viability, T/C [19]: 118% | viability, T/C [20]: 98.6% | viability, T/C [21]: 94.2% | viability, T/C [22]: 78.2% | viability, T/C [23]: 38.8% | viability, T/C [24]: 22.6% | viability, T/C [25]: 93.5% | viability, T/C [26]: 93.2% | viability, T/C [27]: 108% | viability, T/C [28]: 70.5% | viability, T/C [29]: 34.1% | viability, T/C [30]: 17.9% | viability, T/C [31]: 106% | viability, T/C [32]: 111% | viability, T/C [33]: 137% | viability, T/C [34]: 75.3% | viability, T/C [35]: 36.8% | viability, T/C [36]: 16%

COc1cc(C2c3cc4c(cc3C(OC3OC5COC(C)OC5C(O)C3O)C3COC(=O)C23)OCO4)cc(OC)c1O (stereo not drawn) + Cc1cccc(N(C)C(=O)C2C(O)CCN2c2nc(C)cc(C(F)(F)F)c2C#N)c1
IC50 (second compound 0.0316 µM): 577 nM | IC50 (second compound 0.1 µM): 870 nM | IC50 (second compound 0.316 µM): 743 nM | IC50 (second compound 1 µM): 471 nM | IC50 (second compound 3.16 µM): 397 nM | IC50 (second compound 10 µM): 353 nM | viability, T/C [1]: 89.9% | viability, T/C [2]: 112% | viability, T/C [3]: 65.5% | viability, T/C [4]: 41.6% | viability, T/C [5]: 33.3% | viability, T/C [6]: 32.7% | viability, T/C [7]: 104% | viability, T/C [8]: 94.6% | viability, T/C [9]: 73.7% | viability, T/C [10]: 47.3% | viability, T/C [11]: 33.5% | viability, T/C [12]: 35.9% | viability, T/C [13]: 131% | viability, T/C [14]: 114% | viability, T/C [15]: 74.1% | viability, T/C [16]: 40.6% | viability, T/C [17]: 34.2% | viability, T/C [18]: 33.8% | viability, T/C [19]: 116% | viability, T/C [20]: 78% | viability, T/C [21]: 61% | viability, T/C [22]: 35.9% | viability, T/C [23]: 30.4% | viability, T/C [24]: 30.2% | viability, T/C [25]: 84.2% | viability, T/C [26]: 93.6% | viability, T/C [27]: 54% | viability, T/C [28]: 37.4% | viability, T/C [29]: 28.7% | viability, T/C [30]: 34.7% | viability, T/C [31]: 110% | viability, T/C [32]: 73.7% | viability, T/C [33]: 56.2% | viability, T/C [34]: 33.7% | viability, T/C [35]: 31.1% | viability, T/C [36]: 33.1%

Reference: PubChem BioAssay AID1963829 (Molecular Pharmacology Branch, DTP, NCI, 2024)
